{"source": "ChEMBL document CHEMBL3046807", "about": "“Synthesis and anti-inflammatory evaluation of some new 3,6-disubstituted-1,2,4-triazolo-[3,4-b]-1,3,4-thiadiazoles bearing pyrazole moiety” (2012)", "key": {"Rattus norvegicus [1]": {"tested_on": "Rattus norvegicus", "assay": "Anti-inflammatory activity in Rattus norvegicus Wistar (rat) assessed as inhibition of carrageenan-induced paw edema at 20 mg/kg, ip administered 30 min post carrageenan-challenge measured after 2.5 hr relative to control", "type": "functional", "conditions": "route intraperitoneal"}, "Rattus norvegicus [2]": {"tested_on": "Rattus norvegicus", "assay": "Anti-inflammatory activity in Rattus norvegicus Wistar (rat) assessed as inhibition of carrageenan-induced paw edema at 10 mg/kg, ip administered 30 min post carrageenan-challenge measured after 2.5 hr relative to control", "type": "functional", "conditions": "route intraperitoneal"}}, "data": [{"compound": "CCc1nnc2sc(-c3c[nH]nc3-c3ccccc3)nn12", "values": [{"measurement": "inhibition in vivo at 20 mg/kg", "setting": "Rattus norvegicus [1]", "value": 29.4, "unit": "%"}]}, {"compound": "CCc1nnc2sc(-c3c[nH]nc3-c3ccc(F)cc3)nn12", "values": [{"measurement": "inhibition in vivo at 20 mg/kg", "setting": "Rattus norvegicus [1]", "value": 23.5, "unit": "%"}]}, {"compound": "CCc1nnc2sc(-c3c[nH]nc3-c3ccc(OC)cc3)nn12", "values": [{"measurement": "inhibition in vivo at 20 mg/kg", "setting": "Rattus norvegicus [1]", "value": 17.6, "unit": "%"}]}, {"compound": "CCc1nnc2sc(-c3c[nH]nc3-c3ccc(Cl)cc3)nn12", "values": [{"measurement": "inhibition in vivo at 20 mg/kg", "setting": "Rattus norvegicus [1]", "value": 56.9, "unit": "%"}]}, {"compound": "CCCc1nnc2sc(-c3c[nH]nc3-c3ccccc3)nn12", "values": [{"measurement": "inhibition in vivo at 20 mg/kg", "setting": "Rattus norvegicus [1]", "value": 56.9, "unit": "%"}]}, {"compound": "CCCc1nnc2sc(-c3c[nH]nc3-c3ccc(F)cc3)nn12", "values": [{"measurement": "inhibition in vivo at 20 mg/kg", "setting": "Rattus norvegicus [1]", "value": 12, "unit": "%"}]}, {"compound": "CCCc1nnc2sc(-c3c[nH]nc3-c3ccc(OC)cc3)nn12", "values": [{"measurement": "inhibition in vivo at 20 mg/kg", "setting": "Rattus norvegicus [1]", "value": 13.5, "unit": "%"}]}, {"compound": "CCCc1nnc2sc(-c3c[nH]nc3-c3ccc(Cl)cc3)nn12", "values": [{"measurement": "inhibition in vivo at 20 mg/kg", "setting": "Rattus norvegicus [1]", "value": 64.7, "unit": "%"}]}, {"compound": "CCc1nnc2sc(-c3c[nH]nc3-c3ccc(Cl)cc3Cl)nn12", "values": [{"measurement": "inhibition in vivo at 20 mg/kg", "setting": "Rattus norvegicus [1]", "value": 25.5, "unit": "%"}]}, {"compound": "CCCc1nnc2sc(-c3c[nH]nc3-c3ccc(Cl)cc3Cl)nn12", "values": [{"measurement": "inhibition in vivo at 20 mg/kg", "setting": "Rattus norvegicus [1]", "value": 23.5, "unit": "%"}]}, {"compound": "O=C(O)Cc1ccccc1Nc1c(Cl)cccc1Cl", "note": "[DICLOFENAC SODIUM]", "values": [{"measurement": "inhibition in vivo at 10 mg/kg", "setting": "Rattus norvegicus [2]", "value": 80.4, "unit": "%"}]}]}
